# Patent US9809578B2, “Pyrazolyl urea, thiourea, guanidine and cyanoguanidine compounds as trkA kinase inhibitors” (Array BioPharma Inc., priority 2012, dated 2017)
# Tests used:
# off-target kinases = conditions: 10 μM
# Description: (§1) The compound was run in duplicate at a concentration of ATP near the Km for each individual kinase according to Millipore's specifications.
# AKT1 = target: T1, AKT1 (Homo sapiens, UniProt P31749); assay: KinaseProfiler AKT1; assay type: biochemical; conditions: 10 μM, ATP near Km
# T1 construct: purchased Millipore (KinaseProfiler service)
# Description: as §1
# AURKA = target: T2, AURKA (Homo sapiens, UniProt O14965); assay: KinaseProfiler AURKA; assay type: biochemical; conditions: 10 μM, ATP near Km
# T2 construct: purchased Millipore (KinaseProfiler service)
# Description: as §1
# BLK_m = target: T3, BLK_m (Mus musculus, UniProt P16277); assay: KinaseProfiler BLK_m; assay type: biochemical; conditions: 10 μM, ATP near Km
# T3 construct: purchased Millipore (KinaseProfiler service)
# Description: as §1
# Bmx = target: T4, Bmx (Homo sapiens, UniProt P51813); assay: KinaseProfiler Bmx; assay type: biochemical; conditions: 10 μM, ATP near Km
# T4 construct: purchased Millipore (KinaseProfiler service)
# Description: as §1
# CDK2/cyclinA = target: T5, CDK2/cyclinA (Homo sapiens, UniProt P24941); assay: KinaseProfiler CDK2/cyclinA; assay type: biochemical; conditions: 10 μM, ATP near Km
# T5 construct: purchased Millipore, Inc. (KinaseProfiler service)
# Description: as §1
# CK2 = target: T6, CK2 (Homo sapiens, UniProt P68400); assay: KinaseProfiler CK2; assay type: biochemical; conditions: 10 μM, ATP near Km
# T6 construct: purchased Millipore, Inc. (KinaseProfiler service)
# Description: as §1
# CK2alpha2 = target: T7, CK2alpha2 (Homo sapiens, UniProt P19784); assay: KinaseProfiler CK2alpha2; assay type: biochemical; conditions: 10 μM, ATP near Km
# T7 construct: purchased Millipore, Inc. (KinaseProfiler service)
# Description: as §1
# c-RAF = target: T8, c-RAF (Homo sapiens, UniProt P04049, Y340D/Y341D); assay: KinaseProfiler c-RAF; assay type: biochemical; conditions: 10 μM, ATP near Km
# T8 construct: purchased Millipore, Inc. (KinaseProfiler service)
# Description: as §1
# DAPK1 = target: T9, DAPK1 (Homo sapiens, UniProt P53355); assay: KinaseProfiler DAPK1; assay type: biochemical; conditions: 10 μM, ATP near Km
# T9 construct: purchased Millipore, Inc. (KinaseProfiler service)
# Description: as §1
# DAPK3 = target: T10, DAPK3 (Homo sapiens, UniProt O43293); assay: KinaseProfiler DAPK3; assay type: biochemical; conditions: 10 μM, ATP near Km
# T10 construct: purchased Millipore, Inc. (KinaseProfiler service)
# Description: as §1
# DMPK = target: T11, DMPK (Homo sapiens, UniProt Q09013); assay: KinaseProfiler DMPK; assay type: biochemical; conditions: 10 μM, ATP near Km
# T11 construct: purchased Millipore, Inc. (KinaseProfiler service)
# Description: as §1
# EphA1 = target: T12, EphA1 (Homo sapiens, UniProt P21709); assay: KinaseProfiler EphA1; assay type: biochemical; conditions: 10 μM, ATP near Km
# T12 construct: purchased Millipore, Inc. (KinaseProfiler service)
# Description: as §1
# EphA4 = target: T13, EphA4 (Homo sapiens, UniProt P54764); assay: KinaseProfiler EphA4; assay type: biochemical; conditions: 10 μM, ATP near Km
# T13 construct: purchased Millipore, Inc. (KinaseProfiler service)
# Description: as §1
# EphA8 = target: T14, EphA8 (Homo sapiens, UniProt P29322); assay: KinaseProfiler EphA8; assay type: biochemical; conditions: 10 μM, ATP near Km
# T14 construct: purchased Millipore, Inc. (KinaseProfiler service)
# Description: as §1
# EphB2 = target: T15, EphB2 (Homo sapiens, UniProt P29323); assay: KinaseProfiler EphB2; assay type: biochemical; conditions: 10 μM, ATP near Km
# T15 construct: purchased Millipore, Inc. (KinaseProfiler service)
# Description: as §1
# EphB3 = target: T16, EphB3 (Homo sapiens, UniProt P54753); assay: KinaseProfiler EphB3; assay type: biochemical; conditions: 10 μM, ATP near Km
# T16 construct: purchased Millipore, Inc. (KinaseProfiler service)
# Description: as §1
# ErbB4 = target: T17, ErbB4 (Homo sapiens, UniProt Q15303); assay: KinaseProfiler ErbB4; assay type: biochemical; conditions: 10 μM, ATP near Km
# T17 construct: purchased Millipore, Inc. (KinaseProfiler service)
# Description: as §1
# FGFR2 = target: T18, FGFR2 (Homo sapiens, UniProt P21802); assay: KinaseProfiler FGFR2; assay type: biochemical; conditions: 10 μM, ATP near Km
# T18 construct: purchased Millipore, Inc. (KinaseProfiler service)
# T18 sequence (P21802 22-821): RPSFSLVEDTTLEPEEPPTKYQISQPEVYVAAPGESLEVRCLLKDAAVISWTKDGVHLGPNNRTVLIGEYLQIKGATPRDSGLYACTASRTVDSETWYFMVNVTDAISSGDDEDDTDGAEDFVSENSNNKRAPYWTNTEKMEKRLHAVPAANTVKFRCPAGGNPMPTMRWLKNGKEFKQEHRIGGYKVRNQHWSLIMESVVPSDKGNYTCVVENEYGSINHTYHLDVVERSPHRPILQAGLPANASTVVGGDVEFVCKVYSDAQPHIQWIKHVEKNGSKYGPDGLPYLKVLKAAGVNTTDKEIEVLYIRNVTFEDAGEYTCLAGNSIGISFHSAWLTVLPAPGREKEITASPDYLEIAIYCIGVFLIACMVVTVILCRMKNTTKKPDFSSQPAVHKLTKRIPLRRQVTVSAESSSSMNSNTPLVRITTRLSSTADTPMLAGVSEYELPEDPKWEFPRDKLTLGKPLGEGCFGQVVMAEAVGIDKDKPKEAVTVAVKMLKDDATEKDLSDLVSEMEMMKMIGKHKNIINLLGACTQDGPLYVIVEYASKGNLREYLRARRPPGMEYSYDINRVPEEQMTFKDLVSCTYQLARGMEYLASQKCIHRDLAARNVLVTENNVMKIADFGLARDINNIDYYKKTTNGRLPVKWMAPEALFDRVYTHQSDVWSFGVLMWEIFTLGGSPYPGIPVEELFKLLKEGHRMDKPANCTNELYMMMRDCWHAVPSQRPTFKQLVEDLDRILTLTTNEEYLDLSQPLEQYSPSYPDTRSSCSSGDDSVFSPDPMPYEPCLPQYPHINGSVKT
# Description: as §1
# Fms = target: T19, Fms (Homo sapiens, UniProt P07333); assay: KinaseProfiler Fms; assay type: biochemical; conditions: 10 μM, ATP near Km
# T19 construct: purchased Millipore, Inc. (KinaseProfiler service)
# Description: as §1
# Fyn = target: T20, Fyn (Homo sapiens, UniProt P06241); assay: KinaseProfiler Fyn; assay type: biochemical; conditions: 10 μM, ATP near Km
# T20 construct: purchased Millipore, Inc. (KinaseProfiler service)
# Description: as §1
# JAK3 = target: T21, JAK3 (Homo sapiens, UniProt P52333); assay: KinaseProfiler JAK3; assay type: biochemical; conditions: 10 μM, ATP near Km
# T21 construct: purchased Millipore, Inc. (KinaseProfiler service)
# Description: as §1
# JNK2alpha2 = target: T22, JNK2alpha2 (Homo sapiens, UniProt P45984); assay: KinaseProfiler JNK2alpha2; assay type: biochemical; conditions: 10 μM, ATP near Km
# T22 construct: purchased Millipore, Inc. (KinaseProfiler service)
# T22 sequence (P45984 whole entry): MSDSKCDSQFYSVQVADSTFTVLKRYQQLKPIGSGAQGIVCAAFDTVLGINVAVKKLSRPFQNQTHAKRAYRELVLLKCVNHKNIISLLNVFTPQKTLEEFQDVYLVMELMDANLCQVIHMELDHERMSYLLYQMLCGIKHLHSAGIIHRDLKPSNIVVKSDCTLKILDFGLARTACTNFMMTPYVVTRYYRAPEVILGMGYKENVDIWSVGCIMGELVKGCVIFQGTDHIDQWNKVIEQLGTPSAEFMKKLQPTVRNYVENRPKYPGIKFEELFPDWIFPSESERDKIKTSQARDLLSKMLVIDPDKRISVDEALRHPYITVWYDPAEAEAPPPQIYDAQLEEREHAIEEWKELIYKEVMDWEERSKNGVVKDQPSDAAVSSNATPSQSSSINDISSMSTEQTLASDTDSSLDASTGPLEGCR
# Description: as §1
# JNK3 = target: T23, JNK3 (Homo sapiens, UniProt P53779); assay: KinaseProfiler JNK3; assay type: biochemical; conditions: 10 μM, ATP near Km
# T23 construct: purchased Millipore, Inc. (KinaseProfiler service)
# Description: as §1
# LIMK1 = target: T24, LIMK1 (Homo sapiens, UniProt P53667); assay: KinaseProfiler LIMK1; assay type: biochemical; conditions: 10 μM, ATP near Km
# T24 construct: purchased Millipore, Inc. (KinaseProfiler service)
# Description: as §1
# Mer = target: T25, Mer (Homo sapiens, UniProt Q12866); assay: KinaseProfiler Mer; assay type: biochemical; conditions: 10 μM, ATP near Km
# T25 construct: purchased Millipore, Inc. (KinaseProfiler service)
# T25 sequence (Q12866 21-999): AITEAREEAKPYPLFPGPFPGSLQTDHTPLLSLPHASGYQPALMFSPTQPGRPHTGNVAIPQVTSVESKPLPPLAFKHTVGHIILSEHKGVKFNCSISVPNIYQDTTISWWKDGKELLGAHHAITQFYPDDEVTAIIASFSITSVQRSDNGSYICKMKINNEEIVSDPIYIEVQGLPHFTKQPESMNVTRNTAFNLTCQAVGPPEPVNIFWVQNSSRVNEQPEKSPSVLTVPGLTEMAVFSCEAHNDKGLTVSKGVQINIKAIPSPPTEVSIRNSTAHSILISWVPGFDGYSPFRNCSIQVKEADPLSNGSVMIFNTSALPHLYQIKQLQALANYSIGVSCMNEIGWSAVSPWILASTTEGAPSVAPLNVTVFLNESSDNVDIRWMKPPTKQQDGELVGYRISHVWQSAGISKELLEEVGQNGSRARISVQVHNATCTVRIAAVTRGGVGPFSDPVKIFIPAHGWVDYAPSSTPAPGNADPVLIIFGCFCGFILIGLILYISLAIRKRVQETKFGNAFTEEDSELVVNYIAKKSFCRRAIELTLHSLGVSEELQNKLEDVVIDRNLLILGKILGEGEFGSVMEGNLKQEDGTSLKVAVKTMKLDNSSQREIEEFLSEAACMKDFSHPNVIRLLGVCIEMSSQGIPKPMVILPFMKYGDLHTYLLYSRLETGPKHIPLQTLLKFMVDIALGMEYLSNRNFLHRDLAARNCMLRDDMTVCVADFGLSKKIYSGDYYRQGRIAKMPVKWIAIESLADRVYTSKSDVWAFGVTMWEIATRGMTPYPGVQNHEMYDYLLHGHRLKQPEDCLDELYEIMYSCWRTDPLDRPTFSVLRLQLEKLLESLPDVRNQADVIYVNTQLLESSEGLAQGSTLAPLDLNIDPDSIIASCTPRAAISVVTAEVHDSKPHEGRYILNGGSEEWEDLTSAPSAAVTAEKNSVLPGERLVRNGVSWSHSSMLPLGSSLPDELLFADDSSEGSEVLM
# Description: as §1
# MINK = target: T26, MINK (Homo sapiens, UniProt Q8N4C8); assay: KinaseProfiler MINK; assay type: biochemical; conditions: 10 μM, ATP near Km
# T26 construct: purchased Millipore, Inc. (KinaseProfiler service)
# Description: as §1
# NEK6 = target: T27, NEK6 (Homo sapiens, UniProt Q9HC98); assay: KinaseProfiler NEK6; assay type: biochemical; conditions: 10 μM, ATP near Km
# T27 construct: purchased Millipore, Inc. (KinaseProfiler service)
# Description: as §1
# PAK4 = target: T28, PAK4 (Homo sapiens, UniProt O96013); assay: KinaseProfiler PAK4; assay type: biochemical; conditions: 10 μM, ATP near Km
# T28 construct: purchased Millipore, Inc. (KinaseProfiler service)
# Description: as §1
# PAK5 = target: T29, PAK5 (Homo sapiens, UniProt Q9P286); assay: KinaseProfiler PAK5; assay type: biochemical; conditions: 10 μM, ATP near Km
# T29 construct: purchased Millipore, Inc. (KinaseProfiler service)
# Description: as §1
# PDGFRbeta = target: T30, PDGFRbeta (Homo sapiens, UniProt P09619); assay: KinaseProfiler PDGFRbeta; assay type: biochemical; conditions: 10 μM, ATP near Km
# T30 construct: purchased Millipore, Inc. (KinaseProfiler service)
# Description: as §1
# PhKgamma2 = target: T31, PhKgamma2 (Homo sapiens, UniProt P15735); assay: KinaseProfiler PhKgamma2; assay type: biochemical; conditions: 10 μM, ATP near Km
# T31 construct: purchased Millipore, Inc. (KinaseProfiler service)
# Description: as §1
# PKCepsilon = target: T32, PKCepsilon (Homo sapiens, UniProt Q02156); assay: KinaseProfiler PKCepsilon; assay type: biochemical; conditions: 10 μM, ATP near Km
# T32 construct: purchased Millipore, Inc. (KinaseProfiler service)
# Description: as §1
# PKCzeta = target: T33, PKCzeta (Homo sapiens, UniProt Q05513); assay: KinaseProfiler PKCzeta; assay type: biochemical; conditions: 10 μM, ATP near Km
# T33 construct: purchased Millipore, Inc. (KinaseProfiler service)
# Description: as §1
# Rse = target: T34, Rse (Homo sapiens, UniProt Q06418); assay: KinaseProfiler Rse; assay type: biochemical; conditions: 10 μM, ATP near Km
# T34 construct: purchased Millipore, Inc. (KinaseProfiler service)
# Description: as §1
# Rsk1 = target: T35, Rsk1 (Homo sapiens, UniProt Q15418); assay: KinaseProfiler Rsk1; assay type: biochemical; conditions: 10 μM, ATP near Km
# T35 construct: purchased Millipore, Inc. (KinaseProfiler service)
# Description: as §1
# SGK1 = target: T36, SGK1 (Homo sapiens, UniProt O00141); assay: KinaseProfiler SGK1; assay type: biochemical; conditions: 10 μM, ATP near Km
# T36 construct: purchased Millipore, Inc. (KinaseProfiler service)
# Description: as §1
# STK33 = target: T37, STK33 (Homo sapiens, UniProt Q9BYT3); assay: KinaseProfiler STK33; assay type: biochemical; conditions: 10 μM, ATP near Km
# T37 construct: purchased Millipore, Inc. (KinaseProfiler service)
# Description: as §1
# TAO1 = target: T38, TAO1 (Homo sapiens, UniProt Q7L7X3); assay: KinaseProfiler TAO1; assay type: biochemical; conditions: 10 μM, ATP near Km
# T38 construct: purchased Millipore, Inc. (KinaseProfiler service)
# Description: as §1
# Tie2 = target: T39, Tie2 (Homo sapiens, UniProt Q02763); assay: KinaseProfiler Tie2; assay type: biochemical; conditions: 10 μM, ATP near Km
# T39 construct: purchased Millipore, Inc. (KinaseProfiler service)
# T39 sequence (Q02763 23-1124): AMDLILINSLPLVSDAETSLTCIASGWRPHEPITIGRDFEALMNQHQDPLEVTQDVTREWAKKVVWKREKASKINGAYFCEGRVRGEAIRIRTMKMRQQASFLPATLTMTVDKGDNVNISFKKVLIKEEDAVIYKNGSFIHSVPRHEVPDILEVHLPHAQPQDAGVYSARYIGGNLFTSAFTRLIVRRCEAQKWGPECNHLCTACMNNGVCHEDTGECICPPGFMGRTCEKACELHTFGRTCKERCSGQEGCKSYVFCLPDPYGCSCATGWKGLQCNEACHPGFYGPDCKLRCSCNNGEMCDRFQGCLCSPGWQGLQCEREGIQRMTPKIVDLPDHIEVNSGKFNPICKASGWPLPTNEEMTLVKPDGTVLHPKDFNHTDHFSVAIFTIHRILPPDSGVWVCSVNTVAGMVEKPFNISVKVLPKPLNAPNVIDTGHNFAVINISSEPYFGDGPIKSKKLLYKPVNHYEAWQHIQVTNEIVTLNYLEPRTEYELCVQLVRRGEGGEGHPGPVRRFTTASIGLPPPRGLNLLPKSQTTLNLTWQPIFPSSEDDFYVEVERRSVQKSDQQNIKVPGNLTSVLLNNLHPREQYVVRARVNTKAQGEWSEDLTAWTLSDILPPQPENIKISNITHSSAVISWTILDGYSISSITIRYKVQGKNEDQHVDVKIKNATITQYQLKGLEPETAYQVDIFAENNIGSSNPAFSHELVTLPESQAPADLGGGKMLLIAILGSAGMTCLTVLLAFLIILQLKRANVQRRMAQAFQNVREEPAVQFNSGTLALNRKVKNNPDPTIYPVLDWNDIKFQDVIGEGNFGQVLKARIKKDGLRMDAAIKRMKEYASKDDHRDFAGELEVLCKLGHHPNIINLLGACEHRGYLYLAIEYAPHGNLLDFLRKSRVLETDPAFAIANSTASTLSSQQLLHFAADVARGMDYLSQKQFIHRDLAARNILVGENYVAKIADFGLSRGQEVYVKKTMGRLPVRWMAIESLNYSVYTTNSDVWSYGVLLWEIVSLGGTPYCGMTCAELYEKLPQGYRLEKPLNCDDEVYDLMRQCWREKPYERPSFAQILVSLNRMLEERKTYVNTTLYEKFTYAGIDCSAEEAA
# Description: as §1
# TNK2 = target: T40, TNK2 (Homo sapiens, UniProt Q07912); assay: KinaseProfiler TNK2; assay type: biochemical; conditions: 10 μM, ATP near Km
# T40 construct: purchased Millipore, Inc. (KinaseProfiler service)
# Description: as §1
# Txk = target: T41, Txk (Homo sapiens, UniProt P42681); assay: KinaseProfiler Txk; assay type: biochemical; conditions: 10 μM, ATP near Km
# T41 construct: purchased Millipore, Inc. (KinaseProfiler service)
# Description: as §1
# WNK3 = target: T42, WNK3 (Homo sapiens, UniProt Q9BYP7); assay: KinaseProfiler WNK3; assay type: biochemical; conditions: 10 μM, ATP near Km
# T42 construct: purchased Millipore, Inc. (KinaseProfiler service)
# T42 sequence (Q9BYP7 whole entry): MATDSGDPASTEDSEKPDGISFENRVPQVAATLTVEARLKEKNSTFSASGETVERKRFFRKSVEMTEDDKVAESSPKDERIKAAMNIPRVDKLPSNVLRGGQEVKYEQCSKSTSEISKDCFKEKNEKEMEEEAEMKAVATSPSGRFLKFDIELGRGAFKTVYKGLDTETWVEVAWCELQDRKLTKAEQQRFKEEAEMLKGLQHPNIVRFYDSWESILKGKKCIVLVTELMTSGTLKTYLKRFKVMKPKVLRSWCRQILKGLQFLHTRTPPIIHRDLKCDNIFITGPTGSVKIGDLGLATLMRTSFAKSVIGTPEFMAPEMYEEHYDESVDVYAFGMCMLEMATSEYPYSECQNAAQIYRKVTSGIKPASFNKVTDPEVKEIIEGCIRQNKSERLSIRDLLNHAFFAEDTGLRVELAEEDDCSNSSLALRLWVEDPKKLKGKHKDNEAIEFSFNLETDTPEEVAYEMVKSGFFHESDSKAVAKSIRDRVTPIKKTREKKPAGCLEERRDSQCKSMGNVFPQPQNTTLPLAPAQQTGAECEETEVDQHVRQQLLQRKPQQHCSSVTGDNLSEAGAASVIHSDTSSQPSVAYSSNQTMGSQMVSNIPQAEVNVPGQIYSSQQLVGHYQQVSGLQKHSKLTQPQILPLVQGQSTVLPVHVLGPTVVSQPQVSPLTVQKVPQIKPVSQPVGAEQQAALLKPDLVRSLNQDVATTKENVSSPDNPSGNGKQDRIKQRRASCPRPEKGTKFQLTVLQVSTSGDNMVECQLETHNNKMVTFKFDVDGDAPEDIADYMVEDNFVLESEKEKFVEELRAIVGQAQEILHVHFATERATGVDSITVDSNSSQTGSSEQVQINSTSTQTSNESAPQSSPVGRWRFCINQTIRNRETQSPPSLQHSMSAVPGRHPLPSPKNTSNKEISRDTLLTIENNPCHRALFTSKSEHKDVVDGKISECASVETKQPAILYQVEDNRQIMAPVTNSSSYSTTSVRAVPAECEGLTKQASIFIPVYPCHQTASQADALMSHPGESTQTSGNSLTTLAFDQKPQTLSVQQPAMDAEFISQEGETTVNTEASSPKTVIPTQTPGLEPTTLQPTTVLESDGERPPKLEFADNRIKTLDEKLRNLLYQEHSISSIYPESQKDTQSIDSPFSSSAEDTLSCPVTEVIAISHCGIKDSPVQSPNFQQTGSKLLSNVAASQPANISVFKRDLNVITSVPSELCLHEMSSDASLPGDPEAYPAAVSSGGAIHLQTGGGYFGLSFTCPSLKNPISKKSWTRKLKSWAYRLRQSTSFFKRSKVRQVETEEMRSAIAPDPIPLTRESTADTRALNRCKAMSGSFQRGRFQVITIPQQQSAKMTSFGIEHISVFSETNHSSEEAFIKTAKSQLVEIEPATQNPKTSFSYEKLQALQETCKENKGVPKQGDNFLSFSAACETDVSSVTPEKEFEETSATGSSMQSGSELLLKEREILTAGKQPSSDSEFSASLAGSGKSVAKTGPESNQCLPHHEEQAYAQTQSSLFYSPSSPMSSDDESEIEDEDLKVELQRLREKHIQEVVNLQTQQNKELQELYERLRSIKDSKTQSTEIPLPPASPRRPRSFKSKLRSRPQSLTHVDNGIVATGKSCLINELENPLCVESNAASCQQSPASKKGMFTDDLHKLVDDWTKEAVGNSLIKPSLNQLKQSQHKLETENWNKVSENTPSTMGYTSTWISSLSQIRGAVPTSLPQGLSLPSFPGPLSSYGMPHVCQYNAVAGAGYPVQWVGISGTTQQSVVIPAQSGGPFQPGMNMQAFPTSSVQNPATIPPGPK
# Description: as §1
smiles,measurement,setting,value
"Cc1c(-c2cnn(C)c2)nn(-c2ccccc2)c1NC(=O)Nc1cc(C(F)(F)F)nn1-c1ccccc1 [Example 3, 1-(1′,4-dimethyl-1-phenyl-1H,1′H-[3,4′-bipyrazol]-5-yl)-3-(1-phenyl-3-(trifluoromethyl)-1H-pyrazol-5-yl)urea]",activity against off-target kinases,off-target kinases,largely inactive
same,Avg POC,AKT1,103.5 POC
same,Avg POC,AURKA,121 POC
same,Avg POC,BLK_m,108.5 POC
same,Avg POC,Bmx,114.5 POC
same,Avg POC,CDK2/cyclinA,100.5 POC
same,Avg POC,CK2,96.5 POC
same,Avg POC,CK2alpha2,102.5 POC
same,Avg POC,c-RAF,94.5 POC
same,Avg POC,DAPK1,137.5 POC
same,Avg POC,DAPK3,118.5 POC
same,Avg POC,DMPK,105 POC
same,Avg POC,EphA1,93.5 POC
same,Avg POC,EphA4,106.5 POC
same,Avg POC,EphA8,122 POC
same,Avg POC,EphB2,118.5 POC
same,Avg POC,EphB3,63 POC
same,Avg POC,ErbB4,126 POC
same,Avg POC,FGFR2,110 POC
same,Avg POC,Fms,91.5 POC
same,Avg POC,Fyn,110 POC
same,Avg POC,JAK3,117.5 POC
same,Avg POC,JNK2alpha2,99.5 POC
same,Avg POC,JNK3,124.5 POC
same,Avg POC,LIMK1,92 POC
same,Avg POC,Mer,104.5 POC
same,Avg POC,MINK,105 POC
same,Avg POC,NEK6,125 POC
same,Avg POC,PAK4,103 POC
same,Avg POC,PAK5,145.5 POC
same,Avg POC,PDGFRbeta,175 POC
same,Avg POC,PhKgamma2,115.5 POC
same,Avg POC,PKCepsilon,98 POC
same,Avg POC,PKCzeta,103 POC
same,Avg POC,Rse,106.5 POC
same,Avg POC,Rsk1,123 POC
same,Avg POC,SGK1,276.5 POC
same,Avg POC,STK33,107.5 POC
same,Avg POC,TAO1,119 POC
same,Avg POC,Tie2,121.5 POC
same,Avg POC,TNK2,118.5 POC
same,Avg POC,Txk,139.5 POC
same,Avg POC,WNK3,108 POC
